Experimental data: US10065926B2, “Use of substituted dihydrooxindolylsulfonamides, or the salts thereof, for increasing the stress tolerance of plants” (BAYER CROPSCIENCE AKTIENGESELLSCHAFT, priority 2013, dated 2018)

Target: T1, phosphatase ABI1 via the co-regulator RCAR11/PYR1 (Arabidopsis thaliana, UniProt O49686+P49597)
T1 sequence (P49597 1-434): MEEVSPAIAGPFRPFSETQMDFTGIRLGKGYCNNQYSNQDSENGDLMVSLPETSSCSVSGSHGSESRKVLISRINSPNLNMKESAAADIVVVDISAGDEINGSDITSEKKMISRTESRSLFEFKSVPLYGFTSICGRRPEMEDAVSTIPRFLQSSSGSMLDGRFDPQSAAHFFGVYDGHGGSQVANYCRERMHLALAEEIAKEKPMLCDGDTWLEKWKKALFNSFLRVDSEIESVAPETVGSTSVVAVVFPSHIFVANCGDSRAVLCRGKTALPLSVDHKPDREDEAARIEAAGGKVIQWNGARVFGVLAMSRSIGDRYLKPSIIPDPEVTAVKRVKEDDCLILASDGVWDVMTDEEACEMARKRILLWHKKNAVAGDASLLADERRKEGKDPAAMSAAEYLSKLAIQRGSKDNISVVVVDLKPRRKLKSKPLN
T1 sequence (O49686 1-191): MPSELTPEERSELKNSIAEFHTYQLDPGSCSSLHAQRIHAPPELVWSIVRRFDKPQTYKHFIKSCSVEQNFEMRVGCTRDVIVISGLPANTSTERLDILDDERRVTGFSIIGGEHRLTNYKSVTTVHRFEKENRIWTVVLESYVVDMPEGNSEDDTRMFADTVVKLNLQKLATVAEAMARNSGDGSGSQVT
Assay: In vitro inhibition of phosphatase ABI1 via co-regulator RCAR11/PYR1, MUP dephosphorylation, fluorescence
Format: biochemical
Details: at a concentration of 5 mM of the substance in a solution of DMSO and water; 35° C., 20 minutes
Source text: Effects of the phytohormone abscisic acid (ABA) on the behavior of plants under abiotic stress and the mechanism of action of ABA are described in the literature (cf. Abrams et al., WO97/23441, Cutler, Park et al. Science, 2009, 324, 1068; Grill et al. Science, 2009, 324, 1064; Tanokura et al. Biophysics, 2011, 7, 123; Schroeder et al. Plant J. 2010, 61, 290). Therefore, it is possible with the aid of a suitable in vitro test system to derive a correlation between the action of ABA and the stress response of a plant under abiotic stress. In the event of water deficiency (drought stress), plants form the phytohormone abscisic acid (ABA). This binds, along with a co-regulator (Regulatory Component of ABA-Receptor=RCAR according to Grill et al. Science, 2009, 324, 1064 or PYR/PYL according to Cutler et al. Science, 2009, 324, 1068), to a phosphatase (e.g. ABI1, a type 2C protein phosphatase, also abbreviated to PP2C) and inhibits its activity. […] For the determination of activity, the dephosphorylation of 4-methylumbelliferyl phosphate (MUP) was measured at 460 nm. […]
Enzyme buffer mix and substrate mix were made up 5 minutes prior to the addition and warmed to a temperature of 35° C. […] Finally, a relative fluorescence measurement was made at 35° C. with a BMG Labtech “POLARstar Optima” microplate reader using a 340/10 nm excitation filter and a 460 nm emission filter. […]

Which ABI1 inhibition does the source give for `CC1=CC(=O)CC(C)(C)[C@@]1(O)/C=C/C(C)=C\C(=O)O` [abscisic acid] here?
Its ABI1 inhibition is “++++ (≥90% inhibition)”.
